Data from patent US20160310512A1, “THERAPY REGIMEN FOR TREATING SEVERE ACNE RELATED DISEASES” (GALDERMA RESEARCH & DEVELOPMENT, priority 2013, published 2016).

Assays:
severe acne vulgaris [1] = assay: Multi-center randomized investigator-blind clinical study, 20 weeks: efficacy on acne lesions, nodules and atrophic scars; type: in vivo, human; settings: for Atrophic acne scar count (Mean ± SD): half face
Protocol: This example was the first study evaluating the concomitant use of these treatments.
Isotretinoin is administrated under capsule form (of 40 mg and/or 10 mg each). The quantity administrated was calculated according to patient weight and treatment duration in order to finally administrate a dosage of 0.5 mg/kg for the first 4 weeks of treatment and 1 mg/kg for the 16 remaining weeks.
This study was conducted as a multi-center, randomized, investigator-blind, controlled and parallel group trial. This non-inferiority study involved subjects of any race, aged 12 to 35 years inclusive with severe acne and meeting specific eligibility criteria.
Subjects were randomized at baseline and treated for 20 weeks with either Adapalene-BPO gel associated with oral doxycycline or its vehicle gel associated with oral Isotretinoin.
A total of 266 subjects were enrolled across 29 centres in Canada. Of which, 217 subjects were included in the analysis-per-protocol (PP) populations (all randomized subjects without any major protocol deviations) for primary endpoint analysis. All other endpoints were analysed with population-intent-to-treat (ITT) (all randomized subjects who were dispensed study medication) (N=266).
For efficacy variables, in order to evaluate the effect of major deviations or of data exclusions, the ITT population were analyzed at each visit using the last observation carried forward (LOCF) to impute missing values. If no post-baseline data was available, baseline was carried forward. […] The other missing values were not replaced (observed data).
(§1) Reduction of at least 75% of number of nodules at the end of treatment
Other secondary efficacy endpoints were the percent change from baseline visit in Total lesion counts, Inflammatory lesion counts, Nodule counts, and the total atrophic acne scar counts.

severe acne vulgaris [2] = assay: Same clinical study: composite overall success (efficacy + safety); type: in vivo, human
Description: To achieve this objective, a primary outcome, overall success, was defined as a composite endpoint including efficacy and safety measurements.
Overall success was deemed to be reached when the 2 following criteria were fulfilled:
as §1

P. acnes = P. acnes presence by UV fluorescence photography (Visia system), subset of 40 subjects; type: in vivo
Protocol: Atrophic acne scar counts were conducted on half the face and the presence of P. acnes were also assessed by UV fluorescence photography (Visia® system—Canfield Scientific, Inc.). […] As few centers were equipped with this system, this test was performed on a subset of only 40 subjects.

[3] = when combined with BPO; unlike tretinoin; cited from earlier work
[4] = ITT Observed population, count (%)
[5] = APT, Very Bothered at least 1 Month + Persisting at least 2 Weeks + At least 1 episode
[6] = ITT observed, chelitis, xerosis, erythema, dry mouth, pruritus, epistaxis, conjunctivitis, eye irritation, dry eye
[7] = ITT observed, lip balm, moisturizer, cleanser, cosmetics not counted
[8] = ITT observed, phototoxicity, allergic skin/eczematous reaction, candida vaginitis
[9] = ITT observed, study termination at subject's request motivated by treatment concern

In the case of `CC1=C(/C=C/C(C)=C/C=C/C(C)=C\C(=O)O)C(C)(C)CCC1` [Vehicle + Isotretinoin, 13-cis-retinoic acid], the “Efficacy failure (nodule reduction <75%), Event” value (severe acne vulgaris [1]; ITT observed) is reported as 2 n, the “Efficacy failure (nodule reduction <75%), Subject” value (severe acne vulgaris [1]; ITT observed) is reported as 2 (1.6%) n, % and the “Efficacy Success (nodule reduction >75%)” value (severe acne vulgaris [1]; PP population, end of 20-week treatment) is reported as 110 (98.2%) patients (%). The “Atrophic acne scar count (Mean ± SD)” value (severe acne vulgaris [1]; W12-LOCF (ITT)) was 16.7 ± 15.7, the “Atrophic acne scar count (Mean ± SD)” value (severe acne vulgaris [1]; W20-LOCF (ITT)) was 16.1 ± 16.7 and the “Inflammatory lesions (Median) (not including nodules), % change” value (severe acne vulgaris [1]; Week 20, ITT LOCF) was −95%. The “Nodules (Mean), % change” value (severe acne vulgaris [1]; Week 20, ITT LOCF) was −96%, the “Total lesion counts (Median), % change” value (severe acne vulgaris [1]; Week 20, ITT LOCF) was −93% and the “acne lesion outcomes compared to Adapalene-BPO+Doxycycline (in words)” value (severe acne vulgaris [1]; Week 20, most of the acne lesion outcomes) was “superior”. For the same molecule, the “Overall success: Failure” value (severe acne vulgaris [2]; [4]) was 52 (41.6%), the “Overall success: Success” value (severe acne vulgaris [2]; [4]) was 73 (58.4%) and the “Overall Success” value (severe acne vulgaris [2]; PP population, 20 weeks) was 65 (58.0%) patients (%). For the same molecule, the “Overall success: Failure” value (severe acne vulgaris [2]; PP population, count (%)) was 47 (42.0%), the “composite endpoint (efficacy and safety), overall success” value (severe acne vulgaris [2]; intent-to-treat population, p=0.125) was 54.9% and the “composite endpoint (efficacy and safety), overall success” value (severe acne vulgaris [2]; per-protocol population, p=0.014) was 58%. For the same molecule, the “P. acnes fluorescence, median percent change” value (P. acnes; week 2) was “+14.1%”, the “P. acnes reduction (in words)” value (P. acnes; week 20) was “in favor of ISO” and the “Clinically significant lab abnormality, Evt” value (APT) was 6 n. The “Clinically significant lab abnormality, Subj.” value (APT) was 4 (3.0%) n (%), the “Related AE requiring a prescription of a concomitant medical treatment, Evt” value (APT) was 34 n and the “Related AE requiring a prescription of a concomitant medical treatment, Subj.” value (APT) was 27 (25.6%) n (%). The “Related AEs deemed as safety failure, Subj.” value (APT) was 45 (33.8%) n (%), the “Related AEs leading to discontinuation, Evt” value (APT) was 5 n and the “Related AEs leading to discontinuation, Subj.” value (APT) was 4 (3.0%) n (%). The “Related AEs, Evt” value (APT) was 299 n, the “Related AEs, Subj. with at least one event” value (APT) was 117 (88.0%) n (%) and the “Related serious AEs, Evt” value (APT) was 1 n. For the same molecule, the “Related serious AEs, Subj.” value (APT) was 1 (0.8%) n (%), the “Related severe AEs, Evt” value (APT) was 5 n and the “Related severe AEs, Subj.” value (APT) was 5 (3.8%) n (%). The “subjects reporting at least 1 related AE” value (APT) was 88%, the “subjects with related AEs deemed as a safety failure (AEs of special management concern)” value (APT) was 33.8% and the “Other medically relevant related AEs, Evt” value [5] was 35 n. The “Other medically relevant related AEs, Subj.” value [5] was 23 (17.3%) n (%), the “Related AEs deemed as safety failure, Evt” value (APT, each AE counted once) was 73 n and the “Clinically significant lab abnormality, Event” value (ITT observed) was 6 n. The “Clinically significant lab abnormality, Subject” value (ITT observed) was 4 (3.2%) n, %, the “Inability to escalate to Iso 1 mg/kg/day, Event” value (ITT observed) was 5 n and the “Inability to escalate to Iso 1 mg/kg/day, Subject” value (ITT observed) was 5 (4.0%) n, %. For the same molecule, the “Necessity of oral drug downward dose adjustment, Event” value (ITT observed) was 2 n, the “Necessity of oral drug downward dose adjustment, Subject” value (ITT observed) was 2 (1.6%) n, % and the “Related AE leading to discontinuation, Event” value (ITT observed) was 5 n. For the same molecule, the “Related AE leading to discontinuation, Subject” value (ITT observed) was 4 (3.2%) n, %, the “Related SAE, Event” value (ITT observed) was 1 n and the “Related SAE, Subject” value (ITT observed) was 1 (0.8%) n, %. For the same molecule, the “Related Severe AE, Event” value (ITT observed) was 5 n, the “Related Severe AE, Subject” value (ITT observed) was 5 (4.0%) n, % and the “Safety Failure, Event” value (ITT observed) was 95 n. The “Safety Failure, Subject” value (ITT observed) was 50 (40.0%) n, %, the “subjects with safety failure” value (ITT observed) was 40.0% and the “Predefined related AE Very Bothered, at least 1 Month, Event” value [6] was 2 n. The “Predefined related AE Very Bothered, at least 1 Month, Subject” value [6] was 2 (1.6%) n, %, the “Related AE requiring a prescription of a concomitant medical treatment, Event” value [7] was 34 n and the “Related AE requiring a prescription of a concomitant medical treatment, Subject” value [7] was 27 (21.6%) n, %. For the same molecule, the “Predefined related AE for at least 1 episode, Event” value [8] was 21 n, the “Predefined related AE for at least 1 episode, Subject” value [8] was 15 (12.0%) n, % and the “Subject's treatment concern, Event” value [9] was 2 n. The “Subject's treatment concern, Subject” value [9] was 2 (1.6%) n, % and the “Safety Success (absence of medically relevant events)” value (PP population, 20 weeks) was 67 (59.8%) patients (%).

For `COc1ccc(-c2ccc3cc(C(=O)O)ccc3c2)cc1C12CC3CC(CC(C3)C1)C2` [Adapalene, 6-[3-(1-adamantyl)-4-methoxyphenyl]-2-naphtoic acid], the “stability in the presence of light” value [3] is listed as “stable”.
